# What was measured:
# VRE (ATCC) = assay: MIC, dilution antimicrobial susceptibility test; assay type: cell-based, Vancomycin-resistant Enterococcus; settings: Enterococcus
# Method: Ecteinamycin was tested for antibacterial activity against C. difficile (ATCC BAA-1870), MRSA (ATCC #33591), MSSA (ATCC #29213), E. coli (ATCC #25922), P. aeruginosa (ATCC #27853), and VRE (ATCC), and MICs were determined using a dilution antimicrobial susceptibility test for aerobic (MRSA, MSSA, E. coli, P. aeruginosa, and VRE) and anaerobic (C. difficile) bacteria. Ecteinamycin was dissolved in DMSO, serially diluted to 10 concentrations (0.0313-32 μg/mL), and tested in a 96-well plate. […] Ecteinamycin and vancomycin were tested in triplicate. Six untreated media controls were included on each plate. For MRSA, MSSA, E. coli, and P. aeruginosa, the plates were incubated at 33° C. for 18 h. For C. difficile, the plate was incubated at 36° C. for 48 h anaerobically and then read visually using a mirror apparatus. All manipulations to the plate were done inside the anaerobe chamber. The MIC was determined as the lowest concentration that inhibited visible growth.
# [1] = tested on: S. aureus (ATCC #29213) cells; assay: Membrane depolarization assay (DiOC2(3), flow cytometry); assay type: cell-based; settings: 6 μg/mL, 15 minutes
# Method: S. aureus (ATCC #29213) cells were grown to log phase (14 h) in Mueller Hinton Broth cation-adjusted (MHB50) and were diluted to 0.07 OD600 with media. One mL aliquots were transferred to 1.5 mL centrifuge tubes and treated with the following in triplicate: 10 μL DMSO (control), 10 μL of 600 μg/mL ecteinamycin, 10 μL of 3.2 mg/mL ecteinamycin (1), 10 μL of 500 μM carbonyl cyanide m-chlorophenythydrazone (CCCP), and 10 μL of 3.2 mg/mL rifampicin. Additionally, each tube received 10 μL of 3 mM DiOC2(3) (3,3′-diethyloxacarbocyanine iodide). The tubes were shaken for 15 minutes at room temperature. The cells were then analyzed with a FACSCalibur (BD Biosciences) flow cytometer and CellQuestPro software (BD Biosciences). Collected data represent the geometric means of fluorescence of 40,000 gated events.
# Flow cytometry was used to determine if ecteinamycin, like other polyether ionophore antibiotics, depolarizes cell membranes. 3,3′-diethyloxacarbocyanine iodide (“DiOC2(3)”) fluoresces green in bacterial cells but shifts to red when the cell membrane is depolarized. Therefore, the ratio of red to green fluorescence is indicative of the membrane potential. S. aureus ATCC […] cells were treated with ecteinamycin at concentrations of 6 and 32 μg/mL.
# All cells except the DMSO negative control were treated with DiOC2(3) and analyzed by flow cytometry. […]
# [2] = tested on: S. cerevisiae deletion mutants; assay: Chemical genomic analysis in yeast deletion mutants; assay type: cell-based, Saccharomyces cerevisiae; settings: 250 μg/mL; for Fold Change in abundance relative to solvent control: 48 h
# Method: A chemical genomic analysis of ecteinamycin was performed as described previously (Fling, S.-Y.; Sofiyev, V.; Schneiderman, J.; Hirschfeld, A. F.; Victor, R. E.; Woods, K.; Piotrowski, J. S.; Deshpande, R.; Li, S. C.; de Voogd, N. J.; Myers, C. L.; Boone, C.; Andersen, R. J.; Turvey, S. E. ACS Chem. Biol. 2014, 9, 247-257.). The optimal inhibitory concentration of ecteinamycin for chemical genomic profiling (70-80% growth versus solvent control in YP-Glucose media after 24 h of growth) was determined. A concentration of 250 μg/mL inhibited growth within this range. Two hundred μL cultures of a pooled, genome wide collection of S. cerevisiae deletion mutants with 250 μg/mL ecteinamycin or a DMSO control were grown in triplicate for 48 h at 30° C. The genomic DNA was extracted using the Epicentre MasterPure™ Yeast DNA purification kit. Mutant-specific molecular barcodes were amplified with specially designed multiplex primers containing adapters for Illumina sequencing. The barcodes were sequenced using an Illumina HiSeq2500 Rapid Run platform. Three replicates of each condition (ecteinamycin vs. DMSO) were sequenced. The barcode counts for each yeast deletion mutant in the presence of ecteinamycin were normalized against the DMSO control conditions to generate a Z-score to define sensitivity or resistance of individual strains (the chemical genomic profile). In addition, differential abundance analysis was calculated for each mutant's response to the ecteinamycin versus DMSO using edgeR. The mutants with very low counts (<5) were filtered out before using the edgeR package (version 3.4.2) to calculate an adjusted P-value and log fold change for each mutant. A Bonferroni corrected hypergeometric distribution test was used to search for significant enrichment of GO terms among the top sensitive and resistant deletion mutants with a P-value less than 0.0001.^42 The chemical genomic profile of ecteinamycin was compared against existing chemical genomic datasets by Pearson correlation.
# In parallel, chemical genomic profiling with the yeast, Saccharomyces cerevisiae, was used to investigate the mechanism of action of ecteinamycin. This method has been used for determining the mechanism of action and molecular target for many bioactive compounds, including natural products. Ecteinamcyin was screened against over four thousand deletion mutant yeast strains, genomic DNA was extracted, and mutant-specific DNA barcodes were amplified and sequenced by Illumina sequencing. Ecteinamycin sensitive and resistant mutants were determined by quantification of DNA-barcodes, providing a chemical genomic profile, which was used to evaluate the mechanism of action.
structure (smiles),measurement,setting,value
C=C1OC(=O)C(C(=O)CC2OC(C(C)C(O)C(CC)C(=O)C(C)(O)C3CCC(CC)(C4CCC(O)(C(C)OC)C(C)O4)O3)C(C)CC2C)=C1O (centres unmarked) [ecteinamycin],MIC,VRE (ATCC),0.25 µg/mL
same,membrane depolarization (ratio of red to green fluorescence),[1],demonstrated membrane depolarization
same,growth versus solvent control,"[2]; YP-Glucose media, 24 h",70-80%
same,Fold Change in abundance relative to solvent control,[2]; APL4 deletion mutant (sensitive),0.076
same,Fold Change in abundance relative to solvent control,[2]; APM2 deletion mutant (sensitive),0.037
same,Fold Change in abundance relative to solvent control,[2]; DRS2 deletion mutant (sensitive),0.040
same,Fold Change in abundance relative to solvent control,[2]; EGT2 deletion mutant (resistant),3.564
same,Fold Change in abundance relative to solvent control,[2]; HAL9 deletion mutant (resistant),3.379
same,Fold Change in abundance relative to solvent control,[2]; IRC25 deletion mutant (resistant),3.732
same,Fold Change in abundance relative to solvent control,[2]; MRH1 deletion mutant (resistant),4.129
same,Fold Change in abundance relative to solvent control,[2]; MSS11 deletion mutant (resistant),2.585
same,Fold Change in abundance relative to solvent control,[2]; PAR32 deletion mutant (sensitive),0.017
same,Fold Change in abundance relative to solvent control,[2]; PHO2 deletion mutant (resistant),5.974
same,Fold Change in abundance relative to solvent control,[2]; PHO84 deletion mutant (resistant),2.986
same,Fold Change in abundance relative to solvent control,[2]; PRE9 deletion mutant (resistant),5.995
same,Fold Change in abundance relative to solvent control,[2]; TRP4 deletion mutant (sensitive),0.136
same,Fold Change in abundance relative to solvent control,[2]; UME6 deletion mutant (resistant),10.979
same,Fold Change in abundance relative to solvent control,[2]; VPS38 deletion mutant (sensitive),0.087
same,Fold Change in abundance relative to solvent control,[2]; YMR010W deletion mutant (sensitive),0.122
same,Fold Change in abundance relative to solvent control,[2]; YOL162W deletion mutant (sensitive),0.145
same,Fold Change in abundance relative to solvent control,[2]; YPL205C deletion mutant (resistant),4.953
same,Fold Change in abundance relative to solvent control,[2]; YPR089W deletion mutant (sensitive),0.110
same,Fold Change in abundance relative to solvent control,[2]; YPT7 deletion mutant (sensitive),0.016
